Target: bacterial tyrosinase (indigenously isolated from Bacillus subtilis NCTC 10400)
Test: Tyrosinase inhibition assay (dopachrome formation, OD 475 nm)
Assay type: biochemical
Details: L-tyrosine substrate, 25 °C, triplicates, mean ± SD
Method: The target derivatives were evaluated against tyrosinase enzyme (indigenously isolated from Bacillus subtilis NCTC 10400) inhibition. […] Structure-activity relationship (SAR) studies indicate that overall substituent-related tyrosinase activity decreases in the following way: 2-flouro > 2-chloro > 3,4-dichloro > 4-fluoro > 3,4-dimethyl > 2-methoxy > phenyl > 2,4-dimethyl > 2,5-dimethoxy > diethyl.
The bacterial tyrosinase enzyme isolation and preparation were fully described in our previously published paper and in other reported literature. A novel synthesized series of oxadiazole-based furan molecules were screened for anti-tyrosinase activity. Tyrosinase inhibition was investigated by modifying the reported methods of Kim. Briefly, phosphate buffer (0.05 M), L-tyrosine (765 µL; 2 mM) and tested compounds (35 µL) were incubated at ambient temperature for 10 min then bacterial tyrosinase (200 µL; about 48 U/mL) was added and the whole assay solution was allowed to stand at 25 °C for 2 min. The formation of dopachrome was monitored after incubation (2 min) by measuring the increase in optical density (OD) at λmax 475 nm. The stock solution for the entire synthesized series of oxadiazole-based furan moieties (1 mM) was prepared in DMSO (dimethyl sulfoxide). Five different dilutions of each oxadiazole-based furan moiety was prepared. Ascorbic acid (1 mM) was utilized for the standard tyrosinase inhibitor, and the values were expressed as IC50, the concentration of tested samples which caused the 50% inhibition. The percentage (%) of bacterial tyrosinase inhibitory activity was determine by utilizing the formula:(2) % Inhibition=A−BA×100
Here, A represents control enzyme, i.e., without inhibitor, while B represented the test sample, i.e., inhibitor.
The Prism software was used to analyze statistical data, while the results were measured in triplicates and depicted as mean ± SD.

Structure (SMILES)	IC50
O=C(CSc1nnc(-c2cc3cc(Br)ccc3o2)o1)Nc1ccccc1F [Compound 5a, 2-((5-(5-Bromobenzofuran-2-yl)-1,3,4-oxadiazol-2-yl)thio)-N-(2-fluorophenyl)acetamide]	11 ± 0.25 µM
O=C(CSc1nnc(-c2cc3cc(Br)ccc3o2)o1)Nc1ccccc1Cl [Compound 5b, 2-((5-(5-Bromobenzofuran-2-yl)-1,3,4-oxadiazol-2-yl)thio)-N-(2-chlorophenyl)acetamide]	12.4 µM
CCN(CC)C(=O)CSc1nnc(-c2cc3ccccc3o2)o1 [Compound 5j]	49.5 ± 0.92 µM
O=C(CSc1nnc(-c2cc3cc(Br)ccc3o2)o1)Nc1ccccc1 [Compound 5g, 2-((5-(5-Bromobenzofuran-2-yl)-1,3,4-oxadiazol-2-yl)thio)-N-phenylacetamide]	30 ± 1.5 µM
Cc1ccc(NC(=O)CSc2nnc(-c3cc4cc(Br)ccc4o3)o2)cc1C [Compound 5e, 2-((5-(5-Bromobenzofuran-2-yl)-1,3,4-oxadiazol-2-yl)thio)-N-(3,4-dimethylphenyl)acetamide]	25 ± 0.75 µM
O=C(CSc1nnc(-c2cc3cc(Br)ccc3o2)o1)Nc1ccc(F)cc1 [Compound 5d, 2-((5-(5-Bromobenzofuran-2-yl)-1,3,4-oxadiazol-2-yl)thio)-N-(4-fluorophenyl)acetamide]	15.5 µM
O=C1O[C@H]([C@@H](O)CO)C(O)=C1O [Ascorbic acid, reference compound]	11.5 ± 1 µM
Cc1ccc(NC(=O)CSc2nnc(-c3cc4cc(Br)ccc4o3)o2)c(C)c1 [Compound 5h, 2-((5-(5-Bromobenzofuran-2-yl)-1,3,4-oxadiazol-2-yl)thio)-N-(2,4-dimethylphenyl)acetamide]	36 ± 0.25 µM
COc1ccccc1NC(=O)CSc1nnc(-c2cc3cc(Br)ccc3o2)o1 [Compound 5f, 2-((5-(5-Bromobenzofuran-2-yl)-1,3,4-oxadiazol-2-yl)thio)-N-(2-methoxyphenyl)acetamide]	27 ± 1 µM
O=C(CSc1nnc(-c2cc3cc(Br)ccc3o2)o1)Nc1ccc(Cl)c(Cl)c1 [Compound 5c, 2-((5-(5-Bromobenzofuran-2-yl)-1,3,4-oxadiazol-2-yl)thio)-N-(3,4-dichlorophenyl)acetamide]	12.7 µM
COc1ccc(OC)c(NC(=O)CSc2nnc(-c3cc4cc(Br)ccc4o3)o2)c1 [Compound 5i, 2-((5-(5-Bromobenzofuran-2-yl)-1,3,4-oxadiazol-2-yl)thio)-N-(2,5-dimethoxyphenyl)acetamide]	48 ± 0.96 µM

— paper PMC9500974, “Ultrasonic-Assisted Synthesis of Benzofuran Appended Oxadiazole Molecules as Tyrosinase Inhibitors: Mechanistic Approach through Enzyme Inhibition, Molecular Docking, Chemoinformatics, ADMET and Drug-Likeness Studies” (International Journal of Molecular Sciences, 2022)
